This note sets out measurements from ChEMBL document CHEMBL3046063, “Synthesis and antimicrobial activity of 5-chloroindoline-2,3-dione derivatives” (2012).

Each structure is given as a SMILES string. Converted amounts (≈) assume the structure as drawn.

Format in all cases: functional
One assay concerns Alternaria alternata. Nature of the assay: Antimicrobial activity against Alternaria alternata ATCC 66868 after 24 hr by broth dilution method. The following applies: ATCC 66868, 24 h. For orientation: Broth dilution looks for growth in wells or tubes with falling amounts of substance.
The next assay deals with Escherichia coli. Nature of the assay: Antimicrobial activity against Escherichia coli ATCC 25922 after 24 hr by broth dilution method. Particulars: ATCC 25922, 24 h.
A further assay deals with Microsporum canis. Nature of the assay: Antimicrobial activity against Arthroderma otae ATCC 11622 after 24 hr by broth dilution method. Particulars: ATCC 11622, 24 h.
In another assay the test system is Proteus mirabilis. Nature of the assay: Antimicrobial activity against Proteus mirabilis ATCC 49565 after 24 hr by broth dilution method. Particulars: ATCC 49565, 24 h.
For the next assay, the system named is Staphylococcus hominis. Nature of the assay: Antimicrobial activity against Staphylococcus hominis ATCC 27844 after 24 hr by broth dilution method. The following applies: ATCC 27844, 24 h.
Assay [1] concerns Staphylococcus epidermidis. Nature of the assay: Antimicrobial activity against Staphylococcus epidermidis ATCC 12228 after 24 hr by broth dilution method. The following applies: ATCC 12228, 24 h.
The test system of the next assay is Aspergillus awamori. Nature of the assay: Antimicrobial activity against Aspergillus awamori ATCC 22342 after 24 hr by broth dilution method. Particulars: ATCC 22342, 24 h.
In the next assay the test system is Proteus vulgaris. Nature of the assay: Antimicrobial activity against Proteus vulgaris ATCC 13315 after 24 hr by broth dilution method. The following applies: ATCC 13315, 24 h.
A further assay relates to Aspergillus niger. Nature of the assay: Antimicrobial activity against Aspergillus niger ATCC 9142 after 24 hr by broth dilution method. The following applies: ATCC 9142, 24 h.
In a further assay the test system is Pseudomonas aeruginosa. Nature of the assay: Antimicrobial activity against Pseudomonas aeruginosa ATCC 10145 after 24 hr by broth dilution method. Particulars: ATCC 10145, 24 h.
The next assay relates to Bacillus spizizenii. Nature of the assay: Antimicrobial activity against Bacillus subtilis subsp. spizizenii ATCC 6633 after 24 hr by broth dilution method. Particulars: ATCC 6633, 24 h.
For the next assay, the system named is Trichophyton longifusum. Nature of the assay: Antimicrobial activity against Trichophyton longifusum ATCC 22397 after 24 hr by broth dilution method. The following applies: ATCC 22397, 24 h.
The subject of another assay is Aspergillus fumigatus. Nature of the assay: Antimicrobial activity against Aspergillus fumigatus after 24 hr by broth dilution method.
A further assay concerns Fusarium solani. Nature of the assay: Antimicrobial activity against Fusarium solani ATCC 38136 after 24 hr by broth dilution method. Particulars: ATCC 38136, 24 h.
The subject of a further assay is Trichoderma viride. Nature of the assay: Antimicrobial activity against Hypocrea rufa ATCC 52440 after 24 hr by broth dilution method. The following applies: ATCC 52440, 24 h.
Another assay deals with Aspergillus flavus. Nature of the assay: Antimicrobial activity against Aspergillus flavus ATCC 15517 after 24 hr by broth dilution method. Particulars: ATCC 15517, 24 h.
The subject of a further assay is Candida albicans. Nature of the assay: Antimicrobial activity against Candida albicans ATCC 10231 after 24 hr by broth dilution method. The following applies: ATCC 10231, 24 h.
Another assay deals with Micrococcus luteus. Nature of the assay: Antimicrobial activity against Micrococcus luteus ATCC 4698 after 24 hr by broth dilution method. The following applies: ATCC 4698, 24 h.
The test system of the next assay is Klebsiella pneumoniae. Nature of the assay: Antimicrobial activity against Klebsiella pneumoniae ATCC 13883 after 24 hr by broth dilution method. Particulars: ATCC 13883, 24 h.
Another assay has as its system Staphylococcus aureus. Nature of the assay: Antimicrobial activity against Staphylococcus aureus ATCC 25923 after 24 hr by broth dilution method. Particulars: ATCC 25923, 24 h.
A further assay concerns Bacillus pumilus. Nature of the assay: Antimicrobial activity against Bacillus pumilus ATCC 14884 after 24 hr by broth dilution method. Particulars: ATCC 14884, 24 h.
In the next assay the test system is Bacillus cereus. Nature of the assay: Antimicrobial activity against Bacillus cereus ATCC 11778 after 24 hr by broth dilution method. The following applies: ATCC 11778, 24 h.
The next assay deals with Salmonella typhi. Nature of the assay: Antimicrobial activity against Salmonella enterica subsp. enterica serovar Typhi ATCC 19430 after 24 hr by broth dilution method. Particulars: ATCC 19430, 24 h.
Another assay relates to Rhizoctonia solani. Nature of the assay: Antimicrobial activity against Rhizoctonia solani ATCC 76131 after 24 hr by broth dilution method. Particulars: ATCC 76131, 24 h.

Take `O=C1Nc2ccc(Cl)cc2/C1=N/N1C(=O)C(Cl)C1c1ccc(F)cc1` (stereo unspecified): the MIC with Alternaria alternata amounted to 4.68 µg/mL (≈ 12.4 µM); in the assay with Escherichia coli, 18.8 µg/mL (≈ 49.6 µM); in the assay on Microsporum canis it was 9.37 µg/mL (≈ 24.8 µM); in the assay with Proteus mirabilis it was 9.37 µg/mL (≈ 24.8 µM); with Staphylococcus hominis it was 9.37 µg/mL (≈ 24.8 µM); in assay [1] it was 18.8 µg/mL (≈ 49.6 µM). For the same compound, the MIC stood at 4.68 µg/mL (≈ 12.4 µM) in the assay with Aspergillus awamori; 18.8 µg/mL (≈ 49.6 µM) against Proteus vulgaris; 4.68 µg/mL (≈ 12.4 µM) against Aspergillus niger; 18.8 µg/mL (≈ 49.6 µM) in the assay on Pseudomonas aeruginosa; 9.37 µg/mL (≈ 24.8 µM) with Bacillus spizizenii; 9.37 µg/mL (≈ 24.8 µM) against Trichophyton longifusum. Further, the minimum inhibitory concentration (MIC) was 9.37 µg/mL (≈ 24.8 µM) in the assay on Aspergillus fumigatus; 9.37 µg/mL (≈ 24.8 µM) against Fusarium solani; 9.37 µg/mL (≈ 24.8 µM) in the assay on Trichoderma viride; 4.68 µg/mL (≈ 12.4 µM) in the assay on Aspergillus flavus; 4.68 µg/mL (≈ 12.4 µM) against Candida albicans; 18.8 µg/mL (≈ 49.6 µM) in the assay on Micrococcus luteus. The MIC with Klebsiella pneumoniae worked out at 18.8 µg/mL (≈ 49.6 µM); with Staphylococcus aureus, 18.8 µg/mL (≈ 49.6 µM); against Bacillus pumilus, 18.8 µg/mL (≈ 49.6 µM); in the assay on Bacillus cereus, 18.8 µg/mL (≈ 49.6 µM); with Salmonella typhi it was 9.37 µg/mL (≈ 24.8 µM); with Rhizoctonia solani, 9.37 µg/mL (≈ 24.8 µM).
Turning to `O=C1Nc2ccc(Cl)cc2/C1=N/N1C(=O)CSC1c1ccccc1Cl` (stereo unspecified), the minimal inhibitory concentration (MIC) with Alternaria alternata came to 150 µg/mL (≈ 382 µM); in the assay on Escherichia coli, 150 µg/mL (≈ 382 µM); in the assay with Microsporum canis it was 75 µg/mL (≈ 191 µM); with Proteus mirabilis it was 300 µg/mL (≈ 765 µM); against Staphylococcus hominis it was 150 µg/mL (≈ 382 µM); in assay [1] it was 150 µg/mL (≈ 382 µM). For the same compound, the minimal inhibitory concentration (MIC) turned out to be 150 µg/mL (≈ 382 µM) against Aspergillus awamori; 300 µg/mL (≈ 765 µM) in the assay with Proteus vulgaris; 75 µg/mL (≈ 191 µM) against Aspergillus niger; 150 µg/mL (≈ 382 µM) against Pseudomonas aeruginosa; 300 µg/mL (≈ 765 µM) against Bacillus spizizenii; 150 µg/mL (≈ 382 µM) against Trichophyton longifusum. Moreover, the MIC was found to be 150 µg/mL (≈ 382 µM) in the assay with Aspergillus fumigatus; 150 µg/mL (≈ 382 µM) with Fusarium solani; 75 µg/mL (≈ 191 µM) against Trichoderma viride; 150 µg/mL (≈ 382 µM) in the assay with Aspergillus flavus; 150 µg/mL (≈ 382 µM) with Candida albicans; 300 µg/mL (≈ 765 µM) in the assay on Micrococcus luteus. Besides, the MIC against Klebsiella pneumoniae worked out at 150 µg/mL (≈ 382 µM); with Staphylococcus aureus, 300 µg/mL (≈ 765 µM); against Bacillus pumilus it was 150 µg/mL (≈ 382 µM); against Bacillus cereus it was 150 µg/mL (≈ 382 µM); in the assay with Salmonella typhi, 150 µg/mL (≈ 382 µM); against Rhizoctonia solani, 75 µg/mL (≈ 191 µM).
For `CN(C)c1ccc(C2C(Cl)C(=O)N2/N=C2\C(=O)Nc3ccc(Cl)cc32)cc1` (stereo unspecified), the MIC in the assay on Alternaria alternata was 4.68 µg/mL (≈ 11.6 µM); against Escherichia coli, 9.37 µg/mL (≈ 23.2 µM); in the assay on Microsporum canis, 4.68 µg/mL (≈ 11.6 µM); against Proteus mirabilis, 18.8 µg/mL (≈ 46.5 µM); in the assay on Staphylococcus hominis, 18.8 µg/mL (≈ 46.5 µM); in assay [1], 9.37 µg/mL (≈ 23.2 µM). In addition, the MIC amounted to 9.37 µg/mL (≈ 23.2 µM) against Aspergillus awamori; 9.37 µg/mL (≈ 23.2 µM) in the assay with Proteus vulgaris; 9.37 µg/mL (≈ 23.2 µM) with Aspergillus niger; 9.37 µg/mL (≈ 23.2 µM) in the assay on Pseudomonas aeruginosa; 18.8 µg/mL (≈ 46.5 µM) in the assay on Bacillus spizizenii; 4.68 µg/mL (≈ 11.6 µM) with Trichophyton longifusum. The MIC against Aspergillus fumigatus is 4.68 µg/mL (≈ 11.6 µM); with Fusarium solani, 9.37 µg/mL (≈ 23.2 µM); in the assay with Trichoderma viride, 4.68 µg/mL (≈ 11.6 µM); in the assay on Aspergillus flavus, 4.68 µg/mL (≈ 11.6 µM); against Candida albicans it was 4.68 µg/mL (≈ 11.6 µM); in the assay with Micrococcus luteus it was 18.8 µg/mL (≈ 46.5 µM). Besides, the MIC in the assay on Klebsiella pneumoniae came to 9.37 µg/mL (≈ 23.2 µM); against Staphylococcus aureus it was 18.8 µg/mL (≈ 46.5 µM); in the assay with Bacillus pumilus, 9.37 µg/mL (≈ 23.2 µM); against Bacillus cereus it was 18.8 µg/mL (≈ 46.5 µM); in the assay with Salmonella typhi, 9.37 µg/mL (≈ 23.2 µM); with Rhizoctonia solani, 9.37 µg/mL (≈ 23.2 µM).
As for `O=C(O)c1cn(C2CC2)c2cc(N3CCNCC3)c(F)cc2c1=O` [CIPROFLOXACIN], the MIC (with Escherichia coli; against Proteus mirabilis; against Staphylococcus hominis; in [1]; against Proteus vulgaris; in the assay with Pseudomonas aeruginosa) was 4.7 µg/mL (≈ 14.2 µM) each time. Also, the MIC against Bacillus spizizenii, in the assay on Micrococcus luteus, with Klebsiella pneumoniae, in the assay on Staphylococcus aureus, with Bacillus pumilus and against Bacillus cereus was 4.7 µg/mL (≈ 14.2 µM) each time. In addition, it took 4.7 µg/mL (≈ 14.2 µM) to inhibit growth against Salmonella typhi (MIC).
Take `Clc1ccccc1C(c1ccccc1)(c1ccccc1)n1ccnc1` [CLOTRIMAZOLE]: the MIC was 2.34 µg/mL (≈ 6.79 µM) with Alternaria alternata; 1.17 µg/mL (≈ 3.39 µM) against Microsporum canis; 2.34 µg/mL (≈ 6.79 µM) against Aspergillus awamori; 2.34 µg/mL (≈ 6.79 µM) in the assay on Aspergillus niger; 2.34 µg/mL (≈ 6.79 µM) in the assay with Trichophyton longifusum; 2.34 µg/mL (≈ 6.79 µM) with Aspergillus fumigatus. Besides, the MIC against Fusarium solani is 1.17 µg/mL (≈ 3.39 µM); against Trichoderma viride, 1.17 µg/mL (≈ 3.39 µM); in the assay on Aspergillus flavus, 2.34 µg/mL (≈ 6.79 µM); in the assay on Candida albicans, 0.58 µg/mL (≈ 1.68 µM); against Rhizoctonia solani it was 1.17 µg/mL (≈ 3.39 µM).

For orientation: MIC means the smallest concentration in the dilution series that meets the test's criterion for growth inhibition. A higher MIC goes with weaker potency.
